Among the data in ChEMBL document CHEMBL4340503, “Antiviral activities of Janus-type nucleosides and their related oxime-intermediates” (Bioorg Med Chem, 2019) are IC50, CC50 and selectivity ratio values, retold here.

Data set [1] relates to Influenza A virus H3N2. Nature of the data set: Antiviral activity against Influenza A virus H3N2 infected in African green monkey Vero cells assessed as inhibition of virus-induced cytopathogenic effect by microscopic analysis. It counts as functional, organism-based.
Data set [2] relates to Human alphaherpesvirus 1. Description: Antiviral activity against Herpes simplex virus 1 infected in African green monkey Vero cells assessed as inhibition of virus-induced cytopathogenic effect by microscopic analysis. The note with it: Human alphaherpesvirus 1, Vero. Format: functional, organism-based.
The nature of data set [3]: Cytotoxicity against African green monkey Vero cells infected with Herpes simplex virus 1 after 72 hrs by MTT assay. Format: cell-based. The note with it: chlorocebus sabaeus, read-out: TC50.
Data set [4] can be described thus: Selectivity index, ratio of TC50 against African green monkey Vero cells infected with Herpes simplex virus 1 after 72 hrs by MTT assay to IC50 against Herpes simplex virus 1 infected in African green monkey Vero cells assessed as inhibition of virus-induced cytopathogenic effect by microscopic analysis. It counts as toxicity. The note with it: read-out: Selectivity Index.

Data set [5] in a line: Selectivity index, ratio of TC50 against African green monkey Vero cells infected with Influenza A virus H3N2 after 72 hrs by MTT assay to IC50 against Influenza A virus H3N2 infected in African green monkey Vero cells assessed as inhibition of virus-induced cytopathogenic effect by microscopic analysis. Format: toxicity. The note with it: read-out: Selectivity Index.

Values after ≈ are worked out from the molar mass of the structure shown. Where only a bound is given, the exact number is not on record here.

As for `Nc1nc(=O)n([C@@H]2O[C@H](CO)[C@@H](O)[C@H]2O)c2nc[nH]c(=O)c12`, the IC50 in data set [1] was more than 1.37 µg/mL; in data set [2], more than 0.79 µg/mL. Moreover, in data set [3], the CC50 at 72 h came out at 2.97 µg/mL (≈ 9.54 µM).

`C[C@H]1O[C@@H](n2c(=O)nc(N)c3c(=O)[nH]c(N)nc32)[C@H](O)[C@@H]1O`: the selectivity ratio at 72 h in data set [4] came out at 4.1. In addition, the IC50 was more than 4.12 µg/mL in data set [1] and 2.08 µg/mL (≈ 6.7 µM) in data set [2]. The CC50 at 72 h in data set [3] stood at 8.56 µg/mL (≈ 27.6 µM).

With `Nc1nc2[nH]c(=O)nc(N)c2c(=O)[nH]1`, the IC50 in data set [1] is 27.8 µg/mL (≈ 143 µM); in data set [2] it was more than 9.26 µg/mL. Further, the CC50 at 72 h in data set [3] turned out to be 16 µg/mL (≈ 82.6 µM).

`O/N=C/c1c(Cl)ncnc1NCc1ccc(Br)cc1`: in data set [4], the selectivity ratio at 72 h was found to be 15.7. The concentration for half-maximal inhibition (IC50) in data set [2] is 0.82 µg/mL (≈ 2.4 µM). Further, in data set [3], the CC50 at 72 h came to 12.8 µg/mL (≈ 37.6 µM).

As for `Nc1ncn([C@@H]2O[C@H](CO)[C@@H](O)[C@H]2O)c2nc(=O)[nH]c(=O)c1-2`, the IC50 in data set [1] and in data set [2] was more than 333 µg/mL in each case. The CC50 at 72 h in data set [3] came out at 577 µg/mL (≈ 1850 µM).

For `O/N=C/c1c(Cl)ncnc1NCc1ccccc1`, in data set [4], the selectivity ratio at 72 h was determined as 3.86. Also, in data set [2], the IC50 was 1.92 µg/mL (≈ 7.31 µM). In addition, the CC50 at 72 h in data set [3] worked out at 7.41 µg/mL (≈ 28.2 µM).

Take `Nc1ncn([C@H]2O[C@@H](CO)[C@H](O)[C@@H]2O)c2nc(=O)[nH]c(=O)c1-2`: the selectivity ratio at 72 h in data set [4] stood at 1.7. Further, the figures for the IC50 in data set [1] and in data set [2] were more than 333 µg/mL and 333 µg/mL (≈ 1070 µM), respectively. For the same molecule, in data set [3], the CC50 at 72 h amounted to 577 µg/mL (≈ 1850 µM).

On to `COc1ccc(Cn2c(=O)nc(N)c3c(OC)nc(N)nc32)cc1`, for which the selectivity ratio at 72 h turned out to be 4.3 in data set [4] and 3.3 in data set [5]. In addition, the 50% inhibitory concentration (IC50) in data set [1] came to 18.5 µg/mL (≈ 56.4 µM); in data set [2], 12.9 µg/mL (≈ 39.3 µM). In addition, the CC50 at 72 h in data set [3] is 55.6 µg/mL (≈ 169 µM).

Take `COc1nc(N)nc2[nH]c(=O)nc(N)c12`: the selectivity ratio at 72 h in data set [4] turned out to be 6.6. Further, the concentration for half-maximal inhibition (IC50) is more than 9.26 µg/mL in data set [1] and 7.31 µg/mL (≈ 35.1 µM) in data set [2]. For the same molecule, the CC50 at 72 h in data set [3] worked out at 48.1 µg/mL (≈ 231 µM).

Consider `CC(C)(C)c1ccc(CNc2ncnc(Cl)c2/C=N\O)cc1`, for which the selectivity ratio at 72 h in data set [4] stood at 2.97. For the same molecule, in data set [2], the concentration for half-maximal inhibition (IC50) was found to be 0.48 µg/mL (≈ 1.51 µM). Besides, the CC50 at 72 h in data set [3] is 1.43 µg/mL (≈ 4.49 µM).

Take `O/N=C/c1c(Cl)ncnc1NCc1ccc(Cl)cc1`: the selectivity ratio at 72 h in data set [4] turned out to be 5.58. In data set [2], the 50% inhibitory concentration (IC50) stood at 0.57 µg/mL (≈ 1.92 µM). In addition, in data set [3], the CC50 at 72 h worked out at 3.18 µg/mL (≈ 10.7 µM).

Take `Nc1ccc(CNc2ncnc(Cl)c2/C=N/O)cc1`: in data set [4], the selectivity ratio at 72 h was 5.26. Besides, the half-inhibitory concentration (IC50) in data set [2] amounted to 0.47 µg/mL (≈ 1.69 µM). The CC50 at 72 h in data set [3] was 2.47 µg/mL (≈ 8.89 µM).

For the molecule `Cc1ccc(CNc2ncnc(Cl)c2/C=N/O)cc1`, the selectivity ratio at 72 h in data set [4] stood at 5.29. Moreover, the IC50 in data set [2] was 0.21 µg/mL (≈ 0.759 µM). Also, the CC50 at 72 h in data set [3] was 1.11 µg/mL (≈ 4.01 µM).

`COc1ccccc1CCNc1ncnc(Cl)c1/C=N/O`: the selectivity ratio at 72 h in data set [4] is 22.5. For the same molecule, in data set [2], the IC50 came out at 3.56 µg/mL (≈ 11.6 µM). Besides, the CC50 at 72 h in data set [3] turned out to be 80.1 µg/mL (≈ 261 µM).

With `COc1ccccc1Nc1ncnc(Cl)c1/C=N/O`, the selectivity ratio at 72 h in data set [4] turned out to be 6.22. The IC50 in data set [2] amounted to 1.43 µg/mL (≈ 5.13 µM). In addition, the CC50 at 72 h in data set [3] is 8.9 µg/mL (≈ 31.9 µM).

Consider `Nc1nc2c(c(N)nc(=O)n2[C@@H]2O[C@H](CO)[C@@H](O)[C@H]2O)c(=O)[nH]1`, for which the 50% inhibitory concentration (IC50) in data set [1] is 9.26 µg/mL (≈ 28.4 µM); in data set [2], more than 83.3 µg/mL. In data set [5], the selectivity ratio at 72 h was 13. Moreover, in data set [3], the CC50 at 72 h came out at 144 µg/mL (≈ 442 µM).

On to `COc1ccc(CNc2ncnc(Cl)c2/C=N/O)cc1`, for which the selectivity ratio at 72 h in data set [4] is 7.06. For the same molecule, in data set [2], the concentration for half-maximal inhibition (IC50) is 0.35 µg/mL (≈ 1.2 µM). Further, the CC50 at 72 h in data set [3] turned out to be 2.47 µg/mL (≈ 8.44 µM).
